Data taken from patent publication US20260146046A1, “BICYCLIC FERROPORTIN INHIBITORS” (Vifor (International) AG, priority 2022, published 2026).
Counter-ions that a name gives are not always drawn.

Biological target: T1, ferroportin (Fpn) (Mus musculus, UniProt Q9JHI9)
T1 construct: endogenous in cells; host or cells: J774 mouse macrophage cell line, induced with Fe(III)NTA
T1 sequence (Q9JHI9 1-570): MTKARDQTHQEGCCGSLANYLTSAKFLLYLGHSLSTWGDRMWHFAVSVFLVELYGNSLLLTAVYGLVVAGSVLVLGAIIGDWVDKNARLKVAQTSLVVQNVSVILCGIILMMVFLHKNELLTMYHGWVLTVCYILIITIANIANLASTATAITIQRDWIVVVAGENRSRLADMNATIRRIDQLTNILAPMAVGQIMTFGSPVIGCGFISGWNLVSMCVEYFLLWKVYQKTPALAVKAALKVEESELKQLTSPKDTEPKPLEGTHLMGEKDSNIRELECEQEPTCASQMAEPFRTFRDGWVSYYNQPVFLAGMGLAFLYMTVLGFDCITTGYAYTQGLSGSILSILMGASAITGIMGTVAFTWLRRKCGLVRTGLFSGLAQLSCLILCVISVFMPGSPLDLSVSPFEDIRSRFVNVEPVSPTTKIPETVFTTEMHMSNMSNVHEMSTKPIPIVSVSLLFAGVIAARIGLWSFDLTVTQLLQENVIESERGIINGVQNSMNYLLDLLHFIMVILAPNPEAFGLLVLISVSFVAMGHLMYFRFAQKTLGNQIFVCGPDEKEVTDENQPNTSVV
Test: Hepcidin Internalization Assay (J774)
Format: cell-based
Conditions: J774 cells, 25 nM TMR-hepcidin, 2 hours; average of multiple measurements; read-out: Average (AVE) IC50 of Fpn inhibitors in the hepcidin internalization assay
From the text: This cellular assay allows quantification of the binding of hepcidin to ferroportin (Fpn) through microscopic detection of internalization of a fluorescently labeled hepcidin into J774 cells. […] Binding of hepcidin to Fpn triggers internalization and degradation of both hepcidin and Fpn. […] Therefore, microscopic detection of cell-associated TMR fluorescence is a measure of hepcidin binding to Fpn and internalization of hepcidin and Fpn. If TMR-hepcidin is prevented from binding to Fpn, cellular TMR fluorescence remains low (Durrenberger et al, 2013). The effect of small molecular weight Fpn inhibitor compounds in this assay was evaluated in vitro as described below. […] Cat. 655090) and grown at 37° C. with 5% CO2. After overnight incubation, cells were washed 3 times with pre-warmed DMEM w/o phenol red, 30 μl/well of DMEM w/o phenol red was added after the final wash and 10 μl/well of dilution series of test compounds were added in triplicates. […] Cells were incubated in a total volume of 50 μl at 37° C. with 5% CO2 for 2 hours, then Hoechst 33342 dye was added to a final concentration of 0.5 μg/ml to stain nuclei and further incubated for 10 min. at 37° C. with 5% CO2. […] After removal of the paraformaldehyde solution, cells were washed 3 times with PBS leaving 100 μl per well and the plates were sealed with foil plate seal. […] The acquired image data was analysed with the […] analysis software. […] IC50 values were calculated with the Sum(Mean) raw data using “log(inhibitor) vs. response” curve fitting of Prism 5 software (GraphPad Software Inc., version 5.02). For each data set the fit of the “log(inhibitor) vs. response (three parameters)” model was compared to the fit of the “log(inhibitor) vs. response-Variable slope (four parameters)” model and the IC50 data of the preferred model was used.

Cn1c(CCNCCc2nc3c(NCc4ncccc4F)nccc3o2)nc2ccccc21 [Example Compound No. 22, N-((3-fluoropyridin-2-yl)methyl)-2-(2-((2-(1-methyl-1H-benzo[d]imidazol-2-yl)ethyl)amino)ethyl)oxazolo[4,5-c]pyridin-4-amine formate]
IC50: 40 nM

Fc1cccnc1CNc1nccc2oc(CCNCCc3nc4cc5c(cc4n3-c3ccccc3)OCCO5)nc12 [Example Compound No. 23, N-((3-fluoropyridin-2-yl)methyl)-2-(2-((2-(1-phenyl-6,7-dihydro-1H-[1,4]dioxino[2′,3′:4,5]benzo[1,2-d]imidazol-2-yl)ethyl)amino)ethyl)oxazolo[4,5-c]pyridin-4-amine formate]
IC50: 18 nM
